Bounds are passed on as bounds.

This passage reports IC50 results from patent publication US20250145624A1, “MEMBRANE-ASSOCIATED TYROSINE- AND THREONINE-SPECIFIC CDC2-INHIBITORY KINASE (PKMYT1) INHIBITORS AND USES THEREOF” (Insilico Medicine IP Limited, priority 2022, published 2025).

For experiment [1], the target named is PKMYT1 (MYT1) (Homo sapiens (Human), UniProt Q99640). Description: PKMYT1 HTRF Assay. It is filed as binding. Particulars: Tracer 178, GST-Tb; compound 10 μM to 0.5 nM. Here is the method: Example A: PKMYT1 HTRF Assay
(§1) Compound serial dilution is performed by Echo, and the final concentrations vary from 10 μM to 0.5 nM. This was filled by the addition of 5 μL/well of Enzyme solution to the assay plate containing the compound. The plate was centrifuged at 1000 rpm for 1 minute, and incubate 15 minutes at 25° C. Then 5 μL/well of tracer solution (Tracer 178) was added to initiate the reaction, and incubate for 60 minutes at 25° C. Next 5 μL GST-Tb was added into the assay plate, the plate was centrifuged at 1000 rpm for 1 minute, and incubate for 15 minutes at 25° C. The assay plate was read on Envision.
For orientation: In TR-FRET formats the signal depends on donor and acceptor labels being close together.

For experiment [2], the target named is WEE1 (Homo sapiens (Human), UniProt P30291). Description: WEE1 ADP-Glo Assay. Particulars: compound 10 μM to 0.5 nM. It is filed as biochemical. Here is the method: Example B: WEE1 ADP-Glo Assay
as §1, with “of substrate” for “of tracer”, “solution” for “solution (Tracer 178)”, “Next 10” for “Next 5”, “μL kinase detection reagent” for “μL GST-Tb”, “for 60” for “for 15”, “on Envision for US LUM as RLU.” for “on Envision.”
(In general: ADP-Glo turns the ADP formed in a reaction into a luminescent signal.)

Chain of PKMYT1 (MYT1) (Q99640 whole entry): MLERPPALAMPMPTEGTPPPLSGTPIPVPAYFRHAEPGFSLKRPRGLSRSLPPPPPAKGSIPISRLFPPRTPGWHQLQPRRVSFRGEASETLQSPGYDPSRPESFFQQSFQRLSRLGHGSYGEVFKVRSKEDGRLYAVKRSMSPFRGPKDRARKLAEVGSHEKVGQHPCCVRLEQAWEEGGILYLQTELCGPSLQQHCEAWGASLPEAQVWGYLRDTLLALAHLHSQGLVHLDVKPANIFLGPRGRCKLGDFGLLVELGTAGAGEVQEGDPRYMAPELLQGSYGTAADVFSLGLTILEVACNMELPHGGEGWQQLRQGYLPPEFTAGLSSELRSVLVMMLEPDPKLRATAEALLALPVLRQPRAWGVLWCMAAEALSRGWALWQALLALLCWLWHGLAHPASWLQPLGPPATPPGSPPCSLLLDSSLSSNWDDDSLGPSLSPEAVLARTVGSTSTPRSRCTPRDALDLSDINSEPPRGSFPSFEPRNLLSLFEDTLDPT
Chain of WEE1 (P30291 whole entry): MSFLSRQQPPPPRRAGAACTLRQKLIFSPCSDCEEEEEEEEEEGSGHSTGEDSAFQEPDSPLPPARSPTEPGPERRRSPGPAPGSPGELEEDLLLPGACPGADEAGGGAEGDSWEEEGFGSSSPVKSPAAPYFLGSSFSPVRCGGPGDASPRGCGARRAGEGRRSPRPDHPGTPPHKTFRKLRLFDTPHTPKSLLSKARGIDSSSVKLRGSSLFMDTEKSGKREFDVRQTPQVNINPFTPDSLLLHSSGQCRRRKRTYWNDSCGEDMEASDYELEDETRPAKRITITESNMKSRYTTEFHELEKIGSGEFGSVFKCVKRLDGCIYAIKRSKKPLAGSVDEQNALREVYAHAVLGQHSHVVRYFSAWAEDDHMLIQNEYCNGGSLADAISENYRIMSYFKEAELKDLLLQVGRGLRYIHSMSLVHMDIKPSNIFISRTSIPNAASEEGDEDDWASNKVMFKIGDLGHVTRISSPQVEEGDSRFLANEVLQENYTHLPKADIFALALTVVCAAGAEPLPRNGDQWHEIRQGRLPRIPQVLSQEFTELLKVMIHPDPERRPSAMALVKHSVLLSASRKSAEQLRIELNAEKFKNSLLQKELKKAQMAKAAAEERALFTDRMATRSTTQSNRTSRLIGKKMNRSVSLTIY

The term IC50 denotes the point on the concentration scale where inhibition reaches its midpoint. High values mean lower potency, low ones higher potency. For the compound `Cc1ccc(O)c(C)c1-n1c(N)c2c3c(c(C)ncc31)CCNC2=O` [Example 2, 1-amino-2-(3-hydroxy-2,6-dimethylphenyl)-5-methyl-2,6,7,8-tetrahydro-9H-2,4,8-triazabenzo[cd]azulen-9-one], the half-inhibitory concentration (IC50) in experiment [1] is 0.01 to 0.05 µM; in experiment [2], over 10 µM. For `Cc1ccc(O)c(C)c1-n1c(N)c2c3c(c(C)cnc31)CCNC2=O` [Example 1, 1-amino-2-(3-hydroxy-2,6-dimethylphenyl)-5-methyl-2,6,7,8-tetrahydro-9H-2,3,8-triazabenzo[cd]azulen-9-one] the same measures were under 0.01 µM and 1.21 µM.

In experiment [1], `Cc1nc2c3c(c(N)n(-c4c(C)ccc(O)c4C)c3n1)C(=O)NCC2` [Example 3, 1-amino-2-(3-hydroxy-2,6-dimethylphenyl)-4-methyl-2,6,7,8-tetrahydro-9H-2,3,5,8-tetraazabenzo[cd]azulen-9-one] had an IC50 of under 0.01 µM.
